Where two headings read alike, the source gives them in different places.
How the values were obtained:
[1] = biological target: T1, NR2B subunit of the NMDA receptor (Rattus norvegicus, UniProt P35439+Q00960); experiment: Antagonistic activity at rat NMDA receptor NR2B subunit: inhibition of [3H]ifenprodil binding to rat forebrain membrane
T1 construct: The forebrain membrane specimen of male rats of an SD strain; from tissue; host or cells: rat (SD strain, male) forebrain membranes
Protocol: Antagonistic Activity at Rat NMDA Receptor NR2B Subunit
The forebrain membrane specimen of male rats of an SD strain (final concentration: 250 μg protein/mL), [^3H]-ifenprodil [diluted with an HEPES buffer (20 mmol/L HEPES-KOH and 100 μmol/L trifluoroperazine (pH 7.4)) to give the final concentration of 4 nmol/L] and a test compound (each being diluted with an HEPES buffer to give the final concentration of […]) were mixed, and incubated at 25° C. for 90 minutes shading from light. The above-incubated membrane was recovered to a G/F-B filter using a cell harvester (Brandel; M-24) to stop the reaction. The resulting membrane was further washed with an HEPES buffer for three times, and radioactivity on the filter was measured (Beckman LS 6500). The antagonistic activity of the test compound for an NMDA receptor NR2B subunit was calculated by the following formula as an inhibiting rate for binding of [^3H]ifenprodil to the NR2B subunit of the NMDA receptor. The result is shown in Table 6 in terms of the concentration (IC50 value) of the test compound for 50% inhibition of binding of [^3H]ifenprodil to the NR2B subunit of the NMDA receptor. [formula] Non-specific binding amount: Binding amount of [^3H]ifenprodil in the presence of 10 μmol/L of ifenprodil Total binding amount: Binding amount of [^3H]ifenprodil in the absence of the test compound
Binding amount in the present of test compound: Binding amount of [^3H]ifenprodil in the presence of the test compound in each concentration

[2] = tested on: strangulated nerve-damaged rats; experiment: Suppressive effect on neurogenic pain (allodynia, von Frey pain threshold) in strangulated nerve-damaged rats; type: in vivo, rat; conditions: male SD rats, orally administered at the dose of 5 and 10 mg/kg, measured 1, 3 and 5 hours after administration
Protocol: Suppressive Effect of the Compound to Neurogenic Pain in Strangulated Nerve-damaged Rats
The test was carried out in accordance with a method by G. M. Pitcher, et al. [Pain, 1999,. vol. 83, pages 37 to 46] which is an improvement of a method by T. Mosconi and K. Kruger [Pain, 1996, vol. 64, pages 37 to 57].
Using male rats of an SD strain (Sprague-Dawley rats), strangulated nerve-damaged rats were prepared by removing sciatic nerve under anesthetizing with pentobarbital, and covering with a PE-60 polyethylene tube (trade name: Intramedic; size: PE-60; manufactured by Becton Dickinson) having a length of 2 mm over the removed area. After 14 to 21 days from the preparation, the following test was carried out. Incidentally, a pain threshold (g) was calculated by the following method, and the rats (strangulated rat-damaged rats) showing less than 4 g of a 50% pain threshold were used for the test in which one group comprised six rats. […]
For the measurement of allodynia which is characteristically noted in neurogenic pain, a von Frey filament (trade name: touch test sensory evaluator; catalog number: model 58011) was used and the result is expressed as a pain threshold (g). The pain threshold (g) was calculated by the up-down method by W. J. Dixon [Annual Review of Pharmacology and Toxicology, 1980, vol. […]

[3] = forebrain membrane of male SD rats, 4 nmol/L [3H]-ifenprodil, 25° C., 90 minutes, read-out: IC50, concentration for 50% inhibition of binding of [3H]ifenprodil to the NR2B subunit of the NMDA receptor

T1 sequence (Q00960 27-1482, other chains not shown): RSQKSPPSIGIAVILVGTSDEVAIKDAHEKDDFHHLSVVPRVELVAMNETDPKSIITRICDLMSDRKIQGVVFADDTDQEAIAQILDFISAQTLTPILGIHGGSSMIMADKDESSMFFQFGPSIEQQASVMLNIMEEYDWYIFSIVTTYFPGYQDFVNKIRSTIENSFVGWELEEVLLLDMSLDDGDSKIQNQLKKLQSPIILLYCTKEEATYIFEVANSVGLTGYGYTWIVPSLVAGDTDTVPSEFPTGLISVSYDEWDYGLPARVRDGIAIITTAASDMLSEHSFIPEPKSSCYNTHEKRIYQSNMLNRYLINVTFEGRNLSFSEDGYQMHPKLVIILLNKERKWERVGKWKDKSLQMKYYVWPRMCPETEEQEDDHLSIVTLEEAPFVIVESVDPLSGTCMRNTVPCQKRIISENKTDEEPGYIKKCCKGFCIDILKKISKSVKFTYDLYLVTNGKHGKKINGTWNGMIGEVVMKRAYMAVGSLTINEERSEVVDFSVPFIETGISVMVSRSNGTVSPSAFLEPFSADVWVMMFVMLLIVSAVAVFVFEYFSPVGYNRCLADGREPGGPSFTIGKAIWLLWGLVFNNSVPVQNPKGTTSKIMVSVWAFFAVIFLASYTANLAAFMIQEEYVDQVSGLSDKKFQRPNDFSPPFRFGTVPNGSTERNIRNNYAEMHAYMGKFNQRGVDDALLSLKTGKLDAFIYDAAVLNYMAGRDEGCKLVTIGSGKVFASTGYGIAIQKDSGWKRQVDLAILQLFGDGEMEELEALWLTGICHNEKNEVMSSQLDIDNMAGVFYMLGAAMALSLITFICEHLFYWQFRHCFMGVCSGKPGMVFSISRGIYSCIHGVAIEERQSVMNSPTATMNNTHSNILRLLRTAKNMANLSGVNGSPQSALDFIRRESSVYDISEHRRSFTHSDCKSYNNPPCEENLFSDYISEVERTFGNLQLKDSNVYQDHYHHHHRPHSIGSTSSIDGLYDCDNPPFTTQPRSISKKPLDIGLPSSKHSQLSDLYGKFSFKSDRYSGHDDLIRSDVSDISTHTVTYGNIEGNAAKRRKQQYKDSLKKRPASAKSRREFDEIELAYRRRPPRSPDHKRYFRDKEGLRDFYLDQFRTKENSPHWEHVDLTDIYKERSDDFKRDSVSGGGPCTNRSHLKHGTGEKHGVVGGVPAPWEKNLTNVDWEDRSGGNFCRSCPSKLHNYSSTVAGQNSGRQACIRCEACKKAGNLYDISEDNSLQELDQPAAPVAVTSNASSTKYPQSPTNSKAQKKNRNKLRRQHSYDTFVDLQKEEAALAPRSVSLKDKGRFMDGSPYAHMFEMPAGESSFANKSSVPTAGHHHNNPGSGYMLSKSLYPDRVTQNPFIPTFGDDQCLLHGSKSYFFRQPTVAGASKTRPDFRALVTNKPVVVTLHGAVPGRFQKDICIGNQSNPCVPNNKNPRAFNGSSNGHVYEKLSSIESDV

| IC50 [1, 3] [nM] | SMILES | IC50 [1] [nM] | improvement of allodynia (pain threshold, von Frey filament) versus Solvent treated group [2] |
| --- | --- | --- | --- |
| 4.6 | CC(C(O)c1ccc2c(c1)CCC(=O)N2)N1CCC(O)(c2cccs2)CC1 (racemic) [Compound 6, (±)-threo-6-{1-Hydroxy-2-[4-hydroxy-4-(thiophene-2-yl)piperidino]propyl}-3,4-dihydroquinolin-2(1H)-one] | – | significantly improved |
| 5.5 | CC(C(O)c1ccc2c(c1)CCC(=O)N2)N1CCC(O)(c2cccs2)CC1 (racemic) [Compound 7, (±)-erythro-6-{1-Hydroxy-2-[4-hydroxy-4-(thiophene-2-yl)piperidino]propyl}-3,4-dihydroquinolin-2(1H)-one] | – | – |

Continued, molecule first:

| SMILES | IC50 [1, 3] [nM] | IC50 [1] [nM] | improvement of allodynia (pain threshold, von Frey filament) versus Solvent treated group [2] |
| --- | --- | --- | --- |
| CC(C(O)c1ccc2[nH]c(=O)sc2c1)N1CCC(O)(c2cccs2)CC1 (racemic) [Compound 1, (±)-threo-6-{1-Hydroxy-2-[4-hydroxy-4-(thiophenee-2-yl)piperidino]propyl}benzothiazol-2(3H)-one] | – | 2 | – |
| CC(C(O)c1ccc2[nH]c(=O)sc2c1)N1CCC(O)(c2cccs2)CC1 (racemic) [Compound 2, (±)-erythro-6-{1-hydroxy-2-[4-hydroxy-4-thiophenee-2-yl)piperidino]propyl}benzothiazol-2(3H)-one] | – | 4.1 | – |
| O=c1[nH]c2ccc(C(O)CN3CCC(O)(c4cccs4)CC3)cc2s1 (centres unmarked) [Compound 5, 6-{1-Hydroxy-2-[4-hydroxy-4-(thiophene-2-yl)-piperidino]ethyl}benzothiazol-2(3H)-one] | – | 2.9 | – |
| O=C1CCc2cc(C(O)CN3CCC(O)(c4cccs4)CC3)ccc2N1 (centres unmarked) [Compound 10] | 5.2 | – | significantly improved |

From patent US20070185168A1, “Piperidine derivatives” (priority 2004, published 2007)
